Test results as given in patent US7148194B2, “Method to increase fibronectin” (Kimberly-Clark Worldwide, Inc., priority 2002, dated 2006).
“Also recorded” adds a separate entry of the source. Residues, ends and D or L forms follow the SMILES beside them.

What was measured:
EpiDerm skin model = assay: viability assay (MTT) in EpiDerm skin model; format: cell-based; conditions: peptide at 500 μM and 2 mM, relative to PBS control
Method: The sample containers were transferred to 6 well plates that contained fresh media. All peptides were dissolved in PBS at a final concentration of 10 mM, and 100 μL each peptide solution was pipetted onto the surface of the Epiderm sample container. Incubation was continued for 12 hours at 37° C., 5% CO2. After the incubation period, the sample containers were washed three times with PBS and the sample containers were transferred to a 24 well plate that contained 300 μL of MTT assay media per well (MTT concentration was 1 mg/mL). The colorimetric assay was allowed to develop for three hours (incubation at 37° C., 5% CO2). Sample containers were then transferred to a 24 well culture plate that contained 2 mL of isopropanol per well. Extraction of the colored precipitate occurred over a period of four hours at room temperature. Absorbance readings were taken at 570 nm and 650 nm for each sample. The percent viability of each sample relative to a PBS control was calculated as: 100×(OD570^sam−OD650^sam)/(OD570^con−OD650^con) (6) Routinely, the peptide sample was assayed in triplicate. Results

[1] = tested on: normal human dermal fibroblasts (NHDF); assay: NHDF migration assay, 48-well chemotaxis chamber; format: cell-based; conditions: for induction of NHDF migration: concentrations ranging from 1000 μg/mL to 10 ng/mL (data not shown)
Method: Normal, human dermal fibroblasts (NHDF) were obtained from Biowhittaker, (Walkersville, Md.) and propagated in T75 flasks in FBM media (500 mL, Biowhittaker) containing insulin, hFGF-b, GA-1000, and fetal bovine serum (10 mL) for up to 12 passages. For the migration assay, NHDF were washed once with 10 mL of Hank's buffered saline solution (HBSS). Three milliliters of trypsin (0.25%) in EDTA were added to the T75 flask for no more than five minutes to remove NHDF from the flask. NHDF in trypsin solution were added to 7 mL of FBM with no supplements added. NHDF were centrifuged for 5 minutes, and the supernatant was removed. NHDF were resuspended in 10 mL of FBM for counting. NHDF were centrifuged for another 5 minutes, and the supernatant was removed. NHDF were resuspended at 1×10^6 cells per mL in FBM without supplements. It was important to use FBM media only in migration assays because the complete media contains fibroblast growth factor and serum, both of which will trigger migration of fibroblasts.
(§1) Peptides were synthesized and purified by the Microchemical Facility at Emory University or by SigmaGenesis. All peptides were analyzed by mass spectrometry after HPLC to assess purity. Approximately 0.5–2.0 milligrams of peptide were used to make fresh stock solutions (5 mg/mL in PBS) for each migration assay. The peptide stock solutions in PBS were used to make more dilute solutions (1 mg/mL, 100 μg/mL, 10 μg/mL, 1 μg/mL, 100 ng/mL, 10 ng/mL) in FBM (without supplements) for the migration assays.
Polyvinylpyrrolidone-free polycarbonate membranes with […] pores (Neuroprobe, Inc., Gaithersburg, Md.) were washed with 90% ethanol for 15 minutes and rinsed four times with deionized water. Membranes were then placed into a glass dish containing an aqueous solution of 5 μg/mL gelatin. The glass dish was placed in to a water bath at about 90° C. for one hour. Membranes were removed from the gelatin solution and were allowed to dry for one hour in the 37° C. incubator.
A 48-well chemotaxis chamber (Neuroprobe, Inc., Gaithersburg, Md.) (see FIG. 20) was used for the migration assays. Twenty-eight μL of each test solution were added to the bottom wells of the chamber in quadruplicate. A gelatin-treated membrane was placed carefully on top of the bottom wells. The gasket and top part of chamber were then placed carefully on top of the membrane. The apparatus was tightened using six thumbscrews. A solution of NHDF containing an estimated cell density (2×10^5 cells per mL) was made by adding 320 μL of the 1×10^6 cells per mL solution to 1.28 mL of FBM (no supplements). Fifty microliters of the 2×10^5 cells per mL NHDF solution were added to the top part of each well in the chamber. The chamber was placed in the incubator at 37° C./5% CO2 for three hours. The chamber was removed, the thumbscrews were removed, and the chamber was turned upside down on a paper towel. […] The membrane was carefully removed. […] The membrane was fixed with methanol and stained using the Diff-Quik Staining Solutions I and II. The nuclei of NHDF are stained purple. The membrane was mounted on a glass slide using cedarwood immersion oil and a cover slip. […] The average number of migrated NHDF in the negative control was subtracted from the experimental (peptide) data and positive control data.

neutrophils = assay: neutrophil migration assay, transwell plate; format: cell-based, human; conditions: 10 nM, positive control
Method: as §1, with “HBSS/HSA)” for “PBS)”, “solutions” for “solutions in PBS”, “ng/mL, and” for “ng/mL,”, “HBSS/HSA” for “FBM (without supplements)”, “the” for “the migration”
Neutrophils were isolated from human blood (collected in Vacutainer™ tubes containing EDTA) by layering the blood/EDTA mixture (about 20 mL) on top of two layers of Histopaque™ 1119 (bottom layer, 18 mL) and 1077 (top layer, 7 mL) in 50 mL Falcon tubes. The tubes were centrifuged at 1800 rpm for 30 minutes (no brake). Four layers appeared in the tubes after the spin (from top to bottom layers): plasma, 1077, 1119, and red blood cells. The buffy coat between the plasma and 1077 layers contained lymphocytes, monocytes, and some platelets. The plasma layer, the buffy coat, and most of the 1077 layer was removed and discarded. The 1119 layer that contained the neutrophils was removed and was placed into a clean 50 mL tube. Dulbecco's Phosphate Buffered Saline (DPBS) was added to bring the volume to 50 mL. The cells were centrifuged for 15 minutes at 2100 rpm. The cells were resuspended in 10 mL of DPBS, transferred to 15 mL tubes, and centrifuged again for 10 minutes at 2000 rpm. This process was repeated to wash the cells a second time. After the supernatant was removed, the red blood cells were lysed by adding 6 mL of cold sterile water to each 15 mL of supernatant. Cells were mixed in the water for only 30 seconds. Six mL of cold 2% sterile saline was then added. Cells were centrifuged again for 10 minutes at 2000 rpm. The red supernatant (containing hemoglobin from red blood cells) was removed. This process of red blood cell lysis was repeated two more times to remove all of the red blood cells. After most of the red blood cells were removed, neutrophils were resuspended in 10 mL of HBSS/HSA for counting with trypan blue.
A neutrophil migration assay was performed in duplicate using a 24-well transwell plate (3 μm pore size for membrane). Transwell membranes were pre-moistened with 20–40 μL of HBSS/HSA (0.04–0.4%). Chemotactic solutions (500 μL) were added to the bottom of each well. […] Transwells were then placed into the chemotactic solutions. The plate was placed into the incubator (37° C., 5% CO2) for one hour. Cells that migrated through the membrane were counted using trypan blue.
In the neutrophil migration experiments, neutrophils that were isolated were approximately 95% viable. […]

| Compound | total average viability (EpiDerm skin model) | NHDF migration, percent of the plasma fibronectin positive control ([1]; 100 μg/mL peptide) | NHDF migration, percent of the plasma fibronectin positive control ([1]; 1000 μg/mL peptide) | induction of NHDF migration [1] | further results |
| --- | --- | --- | --- | --- | --- |
| CC(C)[C@H](NC(=O)[C@H](CC(=O)O)NC(=O)[C@@H]1CCCN1C(=O)[C@H](CC(N)=O)NC(=O)CNC(=O)[C@H](CS)NC(=O)[C@H](CCCNC(=N)N)NC(=O)[C@@H]1CCCN1)C(=O)N[C@@H](C)C(=O)O [Peptide 9-mer] (H-PRCGNPDVA-OH; N-terminus and C-terminus assumed) | 95.8% | 16±10% | 32±2% | – | – |
| N=C(N)NCCC[C@H](NC(=O)[C@@H]1CCCN1C(=O)[C@H](Cc1ccccc1)NC(=O)[C@H](Cc1ccccc1)NC(=O)[C@H](CC(N)=O)NC(=O)[C@H](Cc1ccc(O)cc1)NC(=O)[C@@H](N)CC(N)=O)C(=O)N[C@@H](CCCCN)C(=O)N1CCC[C@H]1C(=O)N[C@@H](CCCCN)C(=O)O [Peptide 10-mer] (H-NYNFFPRKPK-OH; N-terminus and C-terminus assumed) | 89.6% | 11±0% | 30±2% | – | – |
| IL-8: positive control for neutrophil migration, 10 nM [reference compound] | – | – | – | – | Percent Neutrophil Migration exp. 2 (neutrophils; 0.04% HSA): 51%; Percent Neutrophil Migration exp. 1 (neutrophils; 0.4% HSA): 81% |
| TLKAMRKPRCGNPDVAN (listed as Homo sapiens) [Peptide 17-mer] | – | – | – | not chemotactic to NHDF at any concentration; also recorded: did not induce NHDF migration; also recorded: no effect on fibroblast mobility | – |
| TMRKPRCGNPDVAN (listed as Homo sapiens) [Peptide 14-mer] | – | – | – | not chemotactic to NHDF at any concentration; also recorded: did not induce NHDF migration; also recorded: no effect on fibroblast mobility | – |
